The record followed here is PubChem BioAssay (NCI).

Some test systems named below: SF-268 CNS; NCI-H226 lung; RXF 393 renal; NCI-H460 lung; HCT-15 colon; LOX IMVI melanoma; SK-MEL-5 melanoma; BT-549 breast; HOP-92 NSCLC; NCI-H23 lung.
Experiment in all cases: NCI-60 cell line screen, 48 h

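All cell lines were grown in 96-well plates and treated with compound for 48 hours. At the GI50, growth is halved. TGI: concentration producing complete growth inhibition.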

`CC(=O)OC1CC(C)c2c1ncnc2N1CCN(C(=O)OC(C)(C)C)CC1` (stereo not given): the GI50 with SF-268 CNS is 67.2 µM; in the assay on NCI-H226 lung it was 63.9 µM; in the assay with RXF 393 renal, 31.9 µM; in the assay on NCI-H460 lung, 34.7 µM; in the assay on HCT-15 colon, 55.3 µM; in the assay on LOX IMVI melanoma, 47.8 µM. For the same compound, the GI50 in the assay with SK-MEL-5 melanoma was 37.8 µM; with BT-549 breast, 61 µM; in the assay with HOP-92 NSCLC it was 19.4 µM; in the assay with NCI-H23 lung, 58.9 µM. The TGI in the assay on SF-268 CNS, in the assay on NCI-H226 lung, with RXF 393 renal, in the assay on NCI-H460 lung, with HCT-15 colon and with LOX IMVI melanoma was more than 100 µM each time. Moreover, the TGI in the assay with SK-MEL-5 melanoma was more than 100 µM; in the assay on BT-549 breast it was more than 100 µM; with HOP-92 NSCLC, 91.4 µM; in the assay on NCI-H23 lung it was more than 100 µM.
For `COc1ccc(S(=O)(=O)N2CCCCC2)cc1NC(=O)c1[nH]c(C)c2c1CCCCC2=O`, the GI50 in the assay with SF-268 CNS was 7.91 µM; with NCI-H226 lung, 1.27 µM; with RXF 393 renal, 0.818 µM; in the assay on NCI-H460 lung it was 4.01 µM; with HCT-15 colon, 1.15 µM; with LOX IMVI melanoma it was 0.887 µM. Also, the GI50 is 1.4 µM in the assay with SK-MEL-5 melanoma, 4 µM in the assay on BT-549 breast, 0.59 µM with HOP-92 NSCLC and 3.11 µM in the assay with NCI-H23 lung. Further, the TGI is more than 100 µM with SF-268 CNS; 34.7 µM in the assay with NCI-H226 lung; 4.09 µM with RXF 393 renal; more than 100 µM with NCI-H460 lung; more than 100 µM with HCT-15 colon; 2.79 µM with LOX IMVI melanoma. The TGI with SK-MEL-5 melanoma is 3.88 µM; in the assay with BT-549 breast, more than 100 µM; with HOP-92 NSCLC, 48.6 µM; with NCI-H23 lung it was more than 100 µM.
`C=C(C)[C@@H]1CC[C@]2(c3ncc(C)o3)CC[C@]3(C)[C@H](CC[C@@H]4[C@@](C)(CCC#N)[C@H](C(=C)C)CC[C@]43C)[C@@H]12`: the GI50 in the assay with SF-268 CNS was 4.68 µM; in the assay on NCI-H226 lung, 3.28 µM; in the assay with RXF 393 renal, 2.14 µM; in the assay with NCI-H460 lung it was 5.42 µM; in the assay with HCT-15 colon, 3.94 µM; with LOX IMVI melanoma, 1.95 µM. Besides, the GI50 in the assay with SK-MEL-5 melanoma was 3.65 µM; in the assay with BT-549 breast, 14.4 µM; with HOP-92 NSCLC, 1.56 µM; with NCI-H23 lung, 6.54 µM. The TGI in the assay with SF-268 CNS was 18.9 µM; in the assay on NCI-H226 lung, 14.5 µM; in the assay with RXF 393 renal, 5.12 µM; in the assay with NCI-H460 lung, 19.4 µM; with HCT-15 colon, 17.1 µM; with LOX IMVI melanoma, 4.14 µM. In addition, the TGI turned out to be 13.7 µM with SK-MEL-5 melanoma, 29.2 µM in the assay on BT-549 breast, 3.39 µM in the assay on HOP-92 NSCLC and 21.4 µM with NCI-H23 lung.
On to `Cc1cc(Cl)ccc1OCC(=O)Oc1c(Cl)c(Cl)c(Cl)c(Cl)c1Cl`, for which the TGI in the assay on SF-268 CNS is more than 100 µM; in the assay with NCI-H226 lung, 53.8 µM; with RXF 393 renal it was 37.3 µM; in the assay with NCI-H460 lung, 51.9 µM; with HCT-15 colon it was 71.7 µM; in the assay with LOX IMVI melanoma, 51.6 µM. Further, the TGI with SK-MEL-5 melanoma is 61.9 µM; in the assay with BT-549 breast, more than 100 µM; with HOP-92 NSCLC, 40 µM; in the assay on NCI-H23 lung, 95.5 µM.
Turning to `CC(=O)c1ccc(NCn2nc(-c3ccccc3O)oc2=S)cc1`, the GI50 in the assay with SF-268 CNS is more than 100 µM; with NCI-H226 lung it was 27.4 µM; in the assay on RXF 393 renal it was 24.6 µM; in the assay with NCI-H460 lung, 39.5 µM; in the assay on HCT-15 colon, 23.4 µM; in the assay on LOX IMVI melanoma it was 22.7 µM. In addition, the GI50 in the assay with SK-MEL-5 melanoma is 55.6 µM; in the assay with BT-549 breast, 56.2 µM; in the assay with HOP-92 NSCLC it was 42.8 µM; with NCI-H23 lung, 92.6 µM. Moreover, the TGI with SF-268 CNS is more than 100 µM; with NCI-H226 lung it was 99.3 µM; with RXF 393 renal, 72.8 µM; in the assay on NCI-H460 lung, more than 100 µM; with HCT-15 colon, 49.3 µM; in the assay on LOX IMVI melanoma, 45.5 µM. For the same compound, the TGI in the assay with SK-MEL-5 melanoma, with BT-549 breast, in the assay on HOP-92 NSCLC and in the assay with NCI-H23 lung was more than 100 µM throughout.
As for `CNC1=C(Br)C(=O)C2=C(C1=O)C1C3=C(C(=O)C=CC3=O)C2c2ccccc21` (stereo not given), the GI50 in the assay with SF-268 CNS was 2.97 µM; in the assay with NCI-H226 lung, 5.19 µM; in the assay on RXF 393 renal, 2.57 µM; in the assay on NCI-H460 lung it was 18.6 µM; in the assay with HCT-15 colon, 2.19 µM; with LOX IMVI melanoma, 1.74 µM. For the same compound, the GI50 in the assay on SK-MEL-5 melanoma is 5.52 µM; in the assay with BT-549 breast it was 2.45 µM; in the assay on HOP-92 NSCLC it was 1.91 µM; in the assay with NCI-H23 lung it was 5.76 µM. Besides, the TGI with SF-268 CNS was more than 29.4 µM; in the assay with NCI-H226 lung, 14.4 µM; in the assay with RXF 393 renal, 4.72 µM; in the assay with NCI-H460 lung, more than 85.7 µM; with HCT-15 colon it was 5.55 µM; in the assay with LOX IMVI melanoma, 4.42 µM. Also, the TGI was determined as 18.6 µM in the assay with SK-MEL-5 melanoma, 5.98 µM in the assay with BT-549 breast, 4.19 µM in the assay with HOP-92 NSCLC and 25.9 µM in the assay on NCI-H23 lung.
Take `CCCCCCCCOC(=O)c1cc(O)c(O)c(O)c1`: the GI50 was 1.49 µM with SF-268 CNS; 8.51 µM in the assay with NCI-H226 lung; 5.45 µM with RXF 393 renal; 2.73 µM with NCI-H460 lung; 1.57 µM in the assay with HCT-15 colon; 1.33 µM with LOX IMVI melanoma. Also, the GI50 in the assay with SK-MEL-5 melanoma is 3.26 µM; in the assay on BT-549 breast it was 2.08 µM; with HOP-92 NSCLC it was 0.686 µM; with NCI-H23 lung, 2.63 µM. In addition, the TGI in the assay on SF-268 CNS worked out at 12.1 µM; in the assay on NCI-H226 lung it was 29 µM; with RXF 393 renal it was 22 µM; with NCI-H460 lung, 10.9 µM; in the assay on HCT-15 colon, 18.3 µM; in the assay with LOX IMVI melanoma, 10.6 µM. The TGI with SK-MEL-5 melanoma amounted to 11.6 µM; in the assay on BT-549 breast, 14.2 µM; in the assay with HOP-92 NSCLC it was 15.6 µM; in the assay on NCI-H23 lung, 11.5 µM.
